How the values were obtained:
Assay in all cases: relative viability (nuclei count vs DMSO), 5 days (fraction); higher = more cells survive
R406 + Alpelisib = compound: COc1cc(Nc2ncc(F)c(Nc3ccc4c(n3)NC(=O)C(C)(C)O4)n2)cc(OC)c1OC [R406] + Cc1nc(NC(=O)N2CCC[C@H]2C(N)=O)sc1-c1ccnc(C(C)(C)C(F)(F)F)c1 [Alpelisib] (partner 2 µM)
Summary of the method: (§1)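 For relative viability, nuclei counts in treated wells were divided by those in vehicle wells. Lung cancer cell lines had been pin-tool dosed in 1536-well plates the day after seeding and cultured for 5 days, then fixed and stained in one step (final 0.05% Triton X-100, 1% formaldehyde, 1 ug/ml Hoechst) and imaged at 4×. Doses were one drug alone or a fixed anchor-drug dose plus five library-drug doses (not always all listed) in √10 steps, and values are duplicate-plate medians.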

Daporinad + Pemetrexed = compound: O=C(/C=C/c1cccnc1)NCCCCC1CCN(C(=O)c2ccccc2)CC1 [Daporinad] + Nc1nc2[nH]cc(CCc3ccc(C(=O)N[C@@H](CCC(=O)O)C(=O)O)cc3)c2c(=O)[nH]1 [Pemetrexed] (partner 0.2 µM)
Summary of the method: as §1

R406 = compound: COc1cc(Nc2ncc(F)c(Nc3ccc4c(n3)NC(=O)C(C)(C)O4)n2)cc(OC)c1OC [R406]
Summary of the method: (§2)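 Following overnight incubation at 37 °C, lung cancer cell lines in 1536-well plates were pinned with five library-drug doses (not always all listed) in √10 steps on vehicle-anchored plates. The cells then spent 5 days without medium change before a combined fix, permeabilisation and Hoechst stain, 4× imaging and MetaXpress nuclear counts. Viability is the treated-to-vehicle ratio of nuclei, taken as the median across plates. Only plates with control CV below 25% and at least one doubling passed.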

Daporinad = compound: O=C(/C=C/c1cccnc1)NCCCCC1CCN(C(=O)c2ccccc2)CC1 [Daporinad]
Summary of the method: as §2

Cell Line | relative viability (R406 + Alpelisib; first compound 0.08 µM) | relative viability (R406 + Alpelisib; first compound 0.253 µM) | relative viability (R406 + Alpelisib; first compound 0.8 µM) | relative viability (R406 + Alpelisib; first compound 2.53 µM) | relative viability (R406 + Alpelisib; first compound 8 µM) | relative viability (Daporinad + Pemetrexed; first compound 0.0005 µM) | relative viability (Daporinad + Pemetrexed; first compound 0.001581 µM) | relative viability (Daporinad + Pemetrexed; first compound 0.005 µM) | relative viability (Daporinad + Pemetrexed; first compound 0.01581 µM) | relative viability (R406; 0.08 µM) | relative viability (R406; 0.253 µM) | relative viability (R406; 0.8 µM) | relative viability (R406; 2.53 µM) | relative viability (R406; 8 µM) | relative viability (Daporinad; 0.0005 µM) | relative viability (Daporinad; 0.001581 µM) | relative viability (Daporinad; 0.005 µM) | relative viability (Daporinad; 0.01581 µM)
SW 1573 | 0.753 | 1.02 | 0.739 | 0.673 | 0.494 | 0.798 | 0.74 | 0.7 | 0.461 | 1.02 | 1.11 | 1.11 | 0.803 | 0.543 | 1.02 | 1.15 | 0.929 | 0.678
H3255 | 0.693 | 0.746 | 0.623 | 0.511 | 0.418 | 0.573 | 0.561 | 0.616 | 0.638 | 0.943 | 1.16 | 0.989 | 0.859 | 0.873 | 0.842 | 1 | 1.06 | 1.19
Calu-6 | 1.01 | 1.14 | 1.13 | 0.66 | 0.389 | – | – | – | – | 0.98 | 1.06 | 1.11 | 0.724 | 0.503 | 0.955 | 1.04 | 0.917 | 0.533
NCI-H1792 | 0.626 | 0.665 | 0.752 | 0.541 | 0.563 | 0.721 | 1.02 | 0.76 | 0.674 | 1 | 1.07 | 1.17 | 0.251 | 0.386 | 0.828 | 1.17 | 1.11 | 1.15
NCI-H2170 | 0.783 | 0.773 | 0.904 | 0.576 | 0.714 | 0.277 | 0.25 | 0.252 | 0.252 | 0.962 | 0.972 | 1.06 | 0.729 | 0.892 | 0.923 | 1.06 | 1.03 | 1.06
NCI-H1650 | – | – | – | – | – | 0.426 | 0.395 | 0.458 | 0.391 | 1.02 | 1.23 | 1.06 | 0.212 | 0.155 | 0.981 | 1.05 | 1.07 | 0.848
NCI-H2087 | 0.959 | 1.06 | 1.11 | 1.09 | 0.757 | 0.675 | 0.739 | 0.711 | 0.764 | 1.05 | 1.16 | 1.23 | 0.428 | 0.851 | 0.906 | 1.16 | 1.22 | 1.02
HCC-366 | 0.41 | 0.439 | 0.441 | – | 0.0784 | 0.187 | – | 0.152 | 0.104 | 1 | 1.1 | 1.03 | 0.432 | 0.565 | 1.04 | 1.01 | 1.02 | 1.03
NCI-H838 | 0.971 | 1.11 | 1.16 | 0.547 | 0.541 | 0.249 | 0.262 | 0.172 | 0.179 | 0.911 | 1.08 | 1.11 | 0.544 | 0.214 | 0.999 | 1.03 | 1.04 | 0.657
EBC-1 | 0.826 | 0.969 | 1.03 | 0.606 | 0.386 | – | – | – | – | 0.99 | 1.14 | 1.25 | 0.877 | 0.481 | 0.829 | 1.06 | 1.03 | 1.08
NCI-H2342 | – | – | – | – | – | 0.782 | 0.739 | 0.862 | 0.819 | 1 | 0.964 | 1.01 | 0.916 | 0.93 | 1.08 | 0.839 | 0.952 | 0.974
NCI-H1623 | – | – | – | – | – | – | – | – | – | 0.908 | 1.05 | 1.11 | 0.818 | 0.893 | 0.822 | 1.15 | 0.957 | 1.05
NCI-H1299 | 1 | 1.02 | 1.11 | 1.12 | 1.09 | – | – | – | – | 1 | 1.08 | 1.07 | 1.06 | 0.744 | 1.01 | 1.04 | 1.04 | 1.04
NCI-H727 | 0.56 | 0.574 | 0.61 | 0.497 | 0.245 | – | – | – | – | 0.817 | 0.888 | 0.964 | 0.806 | 0.668 | 0.931 | 1.06 | 1.06 | 0.884
NCI-H522 | – | – | – | – | – | 0.983 | 1.3 | 1.09 | 0.668 | 0.889 | 1.1 | 1.13 | 0.78 | 0.617 | 1.04 | 0.931 | 1.06 | 0.738
A549 | 0.703 | 0.932 | 0.811 | 0.646 | 0.164 | – | – | – | – | 0.898 | 1.02 | 1.1 | 0.857 | 0.518 | 1.03 | 1.05 | 0.944 | 0.903
NCI-H1648 | – | – | – | – | – | 0.596 | 0.617 | 0.843 | 0.769 | 0.759 | 0.614 | 1.03 | 0.795 | 0.786 | 0.836 | 0.933 | 0.9 | 0.835
SW 900 | – | – | – | – | – | 0.486 | – | 0.506 | 0.496 | 0.798 | 1.03 | 1.26 | 0.166 | 0.293 | 0.748 | 0.733 | 0.864 | 0.592
IA-LM | 0.888 | 0.999 | 1 | 0.962 | 0.81 | – | – | – | – | 1.07 | 1.19 | 0.957 | 1.05 | 0.913 | 0.888 | 0.896 | 0.968 | 0.859
ChaGo-K-1 | – | – | – | – | – | 0.255 | 0.248 | 0.248 | 0.239 | 0.948 | 1.12 | 0.974 | 0.944 | 0.73 | 1.03 | 0.86 | 0.94 | 0.509
ABC-1 | 1.3 | 0.963 | 1.29 | 0.821 | 0.518 | – | – | – | – | 0.761 | 1.06 | 0.895 | 0.619 | 0.535 | 0.802 | 0.934 | 0.832 | 0.659
